{"source": "ChEMBL document CHEMBL1201862", "about": "“PubChem BioAssay data set” (2004)", "key": {"[1]": {"biological_target": "Disintegrin and metalloproteinase domain-containing protein 17 (Homo sapiens, UniProt P78536)", "sequence (P78536 whole entry, the tested form may be a part)": "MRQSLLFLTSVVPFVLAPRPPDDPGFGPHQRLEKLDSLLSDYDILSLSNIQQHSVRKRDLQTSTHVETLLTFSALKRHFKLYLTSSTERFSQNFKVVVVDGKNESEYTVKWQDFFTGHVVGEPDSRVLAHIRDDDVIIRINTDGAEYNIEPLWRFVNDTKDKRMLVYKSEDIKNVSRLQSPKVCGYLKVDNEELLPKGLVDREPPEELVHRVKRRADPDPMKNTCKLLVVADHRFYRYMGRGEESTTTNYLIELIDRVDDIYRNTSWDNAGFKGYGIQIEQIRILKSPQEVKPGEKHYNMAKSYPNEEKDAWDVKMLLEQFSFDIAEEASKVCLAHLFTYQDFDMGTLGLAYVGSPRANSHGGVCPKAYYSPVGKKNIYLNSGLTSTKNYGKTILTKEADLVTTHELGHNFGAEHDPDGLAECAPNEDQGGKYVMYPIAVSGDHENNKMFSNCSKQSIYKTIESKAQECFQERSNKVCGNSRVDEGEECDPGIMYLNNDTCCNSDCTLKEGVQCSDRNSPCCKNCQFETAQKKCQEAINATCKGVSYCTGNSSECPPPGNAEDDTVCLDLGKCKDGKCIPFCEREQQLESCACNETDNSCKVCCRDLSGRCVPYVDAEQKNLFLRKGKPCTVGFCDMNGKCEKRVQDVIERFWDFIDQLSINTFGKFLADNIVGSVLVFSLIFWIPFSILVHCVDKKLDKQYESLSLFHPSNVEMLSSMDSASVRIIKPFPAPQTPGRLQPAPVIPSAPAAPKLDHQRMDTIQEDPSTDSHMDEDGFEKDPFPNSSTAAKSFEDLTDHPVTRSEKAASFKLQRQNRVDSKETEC", "test": "exosite inhibitors of ADAM17, dose response, biochemical (AID 743260)"}, "[2]": {"test": "ADAM10 protease inhibitors, dose response, selectivity assay for ADAM17 exosite inhibitor project, biochemical, FRET peptide substrate, recombinant human ADAM10 (AID 743259);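 further: ADAM10 enzyme cleaving a FRET peptide substrate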"}, "[3]": {"biological_target": "T1, Sentrin-specific protease 8 (Homo sapiens, UniProt Q96LD8)", "T1 sequence (Q96LD8 whole entry)": "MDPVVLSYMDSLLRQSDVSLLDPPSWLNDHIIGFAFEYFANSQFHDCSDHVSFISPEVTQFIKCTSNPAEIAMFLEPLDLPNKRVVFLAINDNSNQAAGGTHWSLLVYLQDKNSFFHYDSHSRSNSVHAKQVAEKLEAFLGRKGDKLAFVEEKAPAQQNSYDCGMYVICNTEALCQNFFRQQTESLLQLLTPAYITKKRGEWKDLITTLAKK", "format": "functional"}, "[4]": {"biological_target": "T1, Sentrin-specific protease 8", "format": "functional", "remark": "listed apart in the source"}, "[5]": {"biological_target": "Long-chain-fatty-acid--AMP ligase FadD28 (Mycobacterium tuberculosis, UniProt P9WQ59)", "sequence (P9WQ59 whole entry)": "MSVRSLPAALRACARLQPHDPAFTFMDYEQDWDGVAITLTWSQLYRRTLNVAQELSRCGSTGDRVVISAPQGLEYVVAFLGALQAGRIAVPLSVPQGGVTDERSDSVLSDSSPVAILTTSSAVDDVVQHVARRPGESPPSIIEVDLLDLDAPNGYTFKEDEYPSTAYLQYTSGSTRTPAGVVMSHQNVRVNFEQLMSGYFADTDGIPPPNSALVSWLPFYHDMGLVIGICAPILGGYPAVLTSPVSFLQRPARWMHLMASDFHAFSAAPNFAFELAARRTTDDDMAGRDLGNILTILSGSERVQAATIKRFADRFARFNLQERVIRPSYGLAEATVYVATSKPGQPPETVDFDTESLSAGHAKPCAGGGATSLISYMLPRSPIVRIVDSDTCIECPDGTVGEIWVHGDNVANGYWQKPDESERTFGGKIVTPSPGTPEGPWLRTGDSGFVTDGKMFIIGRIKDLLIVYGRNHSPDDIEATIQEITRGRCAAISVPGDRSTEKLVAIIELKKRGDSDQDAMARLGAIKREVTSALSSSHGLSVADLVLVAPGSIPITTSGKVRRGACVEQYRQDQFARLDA", "test": "Fluorescence polarization aasay to screen for inhibitors that compete for the binding of FadD28 to a bisubstrate Measured in Biochemical System Using Plate Reader - 2147-01_Inhibitor_Dose_CherryPick_Activity.", "format": "functional, Mycobacterium tuberculosis H37Rv"}, "Paired box protein Pax-8": {"biological_target": "Paired box protein Pax-8 (Homo sapiens, UniProt Q06710)", "sequence (Q06710 whole entry)": "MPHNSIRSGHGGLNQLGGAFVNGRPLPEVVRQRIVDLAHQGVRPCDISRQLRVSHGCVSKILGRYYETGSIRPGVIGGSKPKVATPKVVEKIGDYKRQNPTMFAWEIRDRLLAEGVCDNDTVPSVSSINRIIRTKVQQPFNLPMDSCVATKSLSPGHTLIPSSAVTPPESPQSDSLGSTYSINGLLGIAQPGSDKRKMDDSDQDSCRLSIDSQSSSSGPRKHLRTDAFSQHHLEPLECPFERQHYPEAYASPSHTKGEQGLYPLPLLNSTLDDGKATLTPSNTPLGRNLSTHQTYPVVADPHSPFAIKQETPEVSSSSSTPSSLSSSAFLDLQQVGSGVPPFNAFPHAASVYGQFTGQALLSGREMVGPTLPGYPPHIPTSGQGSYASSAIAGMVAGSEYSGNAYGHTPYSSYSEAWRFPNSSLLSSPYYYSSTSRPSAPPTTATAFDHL", "test": "inhibitors of PAX8-driven TPO luciferase reporter, dose response, RMG-I cells, cherry-pick (AID 687027);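 further: luciferase reporter driven by Pax8 target thyroperoxidase promoter measured by SteadyGlo luminescence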", "format": "functional, cell-based"}, "[6]": {"test": "NIH:OVCAR-3 ovarian cancer cell cytotoxicity, dose response, PAX8 inhibitor project, plate reader, dry powder samples (AID 743044)", "format": "functional, cell-based"}, "[7]": {"test": "cytotoxicity in OVCAR8 ovarian cancer cells, dose response, PAX8 project, cell-based, plate reader, dry powder samples (AID 743197)", "format": "functional", "settings": "OVCAR-8"}, "[8]": {"biological_target": "ADP-ribosylation factor GTPase-activating protein 1 (Rattus norvegicus, UniProt Q62848)", "sequence (Q62848 whole entry)": "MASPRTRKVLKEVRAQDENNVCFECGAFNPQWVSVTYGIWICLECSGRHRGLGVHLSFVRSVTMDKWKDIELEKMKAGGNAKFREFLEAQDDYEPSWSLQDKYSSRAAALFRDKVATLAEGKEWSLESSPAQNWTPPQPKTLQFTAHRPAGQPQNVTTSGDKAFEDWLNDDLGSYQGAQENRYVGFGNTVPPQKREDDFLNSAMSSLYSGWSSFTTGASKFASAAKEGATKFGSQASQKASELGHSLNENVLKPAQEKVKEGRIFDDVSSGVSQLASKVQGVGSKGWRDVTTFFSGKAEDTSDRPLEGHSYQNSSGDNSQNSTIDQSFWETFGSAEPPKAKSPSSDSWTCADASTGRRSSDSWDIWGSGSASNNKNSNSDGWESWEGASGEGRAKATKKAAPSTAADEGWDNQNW", "test": "Fluorescence polarization-based biochemical high throughput dose response screening assay to identify inhibitors of ADP-ribosylation factor GTPase activating protein 1 (ARFGAP1).", "format": "functional"}, "[9]": {"biological_target": "Arf-GAP with SH3 domain, ANK repeat and PH domain-containing protein 1 (Homo sapiens, UniProt Q9ULH1)", "sequence (Q9ULH1 whole entry, the tested form may be a part)": "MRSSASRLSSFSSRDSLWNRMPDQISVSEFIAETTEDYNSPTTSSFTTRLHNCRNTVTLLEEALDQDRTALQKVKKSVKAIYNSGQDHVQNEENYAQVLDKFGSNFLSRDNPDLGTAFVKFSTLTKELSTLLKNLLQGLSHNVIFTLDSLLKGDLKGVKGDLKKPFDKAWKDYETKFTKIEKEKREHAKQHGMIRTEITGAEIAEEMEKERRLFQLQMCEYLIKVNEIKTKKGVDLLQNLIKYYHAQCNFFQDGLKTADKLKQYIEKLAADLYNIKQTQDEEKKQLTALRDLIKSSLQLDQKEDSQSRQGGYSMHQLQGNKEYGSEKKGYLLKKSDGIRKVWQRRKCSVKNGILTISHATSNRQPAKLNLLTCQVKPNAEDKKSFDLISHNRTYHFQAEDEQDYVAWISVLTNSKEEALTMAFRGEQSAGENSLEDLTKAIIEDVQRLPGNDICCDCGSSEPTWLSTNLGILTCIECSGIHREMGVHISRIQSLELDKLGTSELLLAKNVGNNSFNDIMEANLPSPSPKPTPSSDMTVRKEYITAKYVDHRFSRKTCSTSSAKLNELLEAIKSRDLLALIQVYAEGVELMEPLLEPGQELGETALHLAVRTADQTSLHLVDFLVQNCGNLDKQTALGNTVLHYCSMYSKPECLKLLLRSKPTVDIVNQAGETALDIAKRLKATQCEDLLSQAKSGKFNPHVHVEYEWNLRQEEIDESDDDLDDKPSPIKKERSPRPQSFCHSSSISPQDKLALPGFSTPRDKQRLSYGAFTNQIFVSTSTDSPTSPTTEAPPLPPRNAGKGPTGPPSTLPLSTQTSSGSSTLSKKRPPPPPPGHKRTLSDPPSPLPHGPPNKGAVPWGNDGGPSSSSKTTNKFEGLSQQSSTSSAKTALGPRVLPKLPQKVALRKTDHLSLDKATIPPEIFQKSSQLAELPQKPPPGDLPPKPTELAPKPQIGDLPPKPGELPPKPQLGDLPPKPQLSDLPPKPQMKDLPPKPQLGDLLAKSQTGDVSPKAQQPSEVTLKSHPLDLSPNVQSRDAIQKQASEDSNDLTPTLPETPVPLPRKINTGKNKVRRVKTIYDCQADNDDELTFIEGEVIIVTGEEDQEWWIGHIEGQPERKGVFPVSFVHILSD", "format": "functional"}, "[10]": {"biological_target": "Photoreceptor-specific nuclear receptor (Homo sapiens, UniProt Q9Y5X4)", "sequence (Q9Y5X4 whole entry)": "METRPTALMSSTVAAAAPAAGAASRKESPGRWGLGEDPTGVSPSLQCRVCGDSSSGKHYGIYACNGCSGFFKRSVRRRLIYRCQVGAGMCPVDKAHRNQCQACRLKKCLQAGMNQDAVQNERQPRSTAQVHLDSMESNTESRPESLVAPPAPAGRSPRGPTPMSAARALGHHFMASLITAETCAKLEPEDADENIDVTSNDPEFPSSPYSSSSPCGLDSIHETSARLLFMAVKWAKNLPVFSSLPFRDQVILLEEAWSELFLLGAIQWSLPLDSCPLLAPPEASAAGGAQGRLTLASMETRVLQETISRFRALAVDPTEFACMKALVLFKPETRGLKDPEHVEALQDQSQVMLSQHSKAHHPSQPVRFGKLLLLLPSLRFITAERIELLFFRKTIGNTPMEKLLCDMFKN", "format": "functional, cell-based"}, "[11]": {"test": "HeLa cell cytotoxicity, dose response, cytotoxicity control for MgcRacGAP inhibitor project (AID 624300)", "format": "functional"}, "[12]": {"biological_target": "T2, Rac GTPase-activating protein 1 (Homo sapiens, UniProt Q9H0H5)", "T2 sequence (Q9H0H5 whole entry)": "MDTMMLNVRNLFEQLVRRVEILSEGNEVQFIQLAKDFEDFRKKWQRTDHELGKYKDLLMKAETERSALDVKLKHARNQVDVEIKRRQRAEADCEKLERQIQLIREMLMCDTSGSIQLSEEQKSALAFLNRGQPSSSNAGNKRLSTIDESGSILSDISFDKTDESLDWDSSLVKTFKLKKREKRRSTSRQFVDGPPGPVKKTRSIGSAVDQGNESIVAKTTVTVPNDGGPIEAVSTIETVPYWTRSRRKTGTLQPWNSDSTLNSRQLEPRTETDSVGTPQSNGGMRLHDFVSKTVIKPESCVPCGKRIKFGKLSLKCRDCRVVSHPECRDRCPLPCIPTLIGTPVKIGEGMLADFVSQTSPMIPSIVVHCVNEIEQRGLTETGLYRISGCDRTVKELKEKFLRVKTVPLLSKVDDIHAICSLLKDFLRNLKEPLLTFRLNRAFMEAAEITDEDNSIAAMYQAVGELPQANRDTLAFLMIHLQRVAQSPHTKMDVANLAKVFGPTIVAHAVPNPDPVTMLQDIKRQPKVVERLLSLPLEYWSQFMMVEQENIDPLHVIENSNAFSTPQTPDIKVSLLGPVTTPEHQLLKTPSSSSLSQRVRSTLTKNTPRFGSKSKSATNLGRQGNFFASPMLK", "test": "MgcRacGAP GTPase-activating activity inhibitors, confirmation, biochemical, ADP Hunter fluorescence, primary and confirmatory (AID 624330)", "format": "functional"}, "[13]": {"biological_target": "RNA-editing ligase 1, mitochondrial (Trypanosoma brucei brucei, UniProt P86926)", "sequence (P86926 whole entry)": "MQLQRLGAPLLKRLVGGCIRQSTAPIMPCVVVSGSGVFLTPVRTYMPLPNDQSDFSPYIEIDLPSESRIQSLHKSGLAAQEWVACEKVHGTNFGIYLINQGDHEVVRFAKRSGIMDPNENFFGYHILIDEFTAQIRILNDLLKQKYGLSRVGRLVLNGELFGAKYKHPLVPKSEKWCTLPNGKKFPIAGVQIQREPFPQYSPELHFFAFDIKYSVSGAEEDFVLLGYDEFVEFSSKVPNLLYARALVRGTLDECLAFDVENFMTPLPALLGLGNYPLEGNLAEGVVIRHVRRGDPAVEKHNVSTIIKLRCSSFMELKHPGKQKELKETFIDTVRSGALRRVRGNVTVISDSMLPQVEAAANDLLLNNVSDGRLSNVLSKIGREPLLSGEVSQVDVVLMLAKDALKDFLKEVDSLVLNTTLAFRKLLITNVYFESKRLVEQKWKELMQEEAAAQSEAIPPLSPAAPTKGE", "test": "TbREL1 ligase inhibitors, dose response, biochemical, fluorescence, Trypanosoma brucei (AID 1117295)", "format": "functional"}, "[14]": {"test": "Concentration-dependent survival of SW480 colon cancer line, luminescence detection with CellTiter-Glo, half-maximal inhibitory concentration (AID 1117338)", "format": "functional"}, "[15]": {"test": "RKO cell viability reduction, dose response, CellTiter-Glo luminescence (AID 1117322)", "format": "functional"}, "[16]": {"test": "cytotoxicity toward HCT116 cells – cell-based, CellTiter-Glo luminescence, IC50, dose response (AID 1117332)", "format": "functional", "settings": "HCT-116"}, "[17]": {"test": "SNU-C1 cell viability reduction, dose response, CellTiter-Glo luminescence (AID 1117323)", "format": "functional, cell-based"}, "[18]": {"test": "cytotoxicity toward Colo320 cells – cell-based, CellTiter-Glo luminescence, IC50, dose response (AID 1117334)", "format": "functional", "settings": "COLO 320"}, "[19]": {"test": "cytotoxicity toward HT-29 cells – cell-based, CellTiter-Glo luminescence, IC50, dose response (AID 1117330)", "format": "functional"}, "[20]": {"test": "CellTiter-Glo luminescent dose response of DLD-1 viability loss (AID 1117352)", "format": "functional"}, "[21]": {"test": "HCT116 cell viability decrease, GSK3B pretreatment – CellTiter-Glo, IC50, dose response (AID 1117339)", "format": "functional", "settings": "HCT-116"}}, "note": "Calls of active or inactive are those of the source.", "data": [{"compound": "C=CCC[C@@H](Cc1ccc(F)cc1)C(=O)OC[C@@H]1CCCN1C(=O)[C@H](CC=C)CC(=O)N[C@H](CO)Cc1ccccc1", "values": [{"measurement": "IC50", "setting": "[1]", "value": "> 69.5 µM (inactive)"}, {"measurement": "IC50", "setting": "[2]", "value": "15.2 µM (inactive)"}]}, {"compound": "CCc1nc2ccc(C(=O)Nc3ccc4c(c3)OCC(=O)N4)cn2c1N(CC)Cc1cccc(Br)c1", "values": [{"measurement": "IC50", "setting": "[1]", "value": "> 69.5 µM (inactive)"}, {"measurement": "IC50", "setting": "[2]", "value": "> 69.5 µM (inactive)"}]}, {"compound": "COc1ccc(C(=O)N2C=Cc3ccccc3C2C#N)cc1", "note": "(stereo not given)", "values": [{"measurement": "IC50", "setting": "[3]", "value": "> 100 µM (inactive)"}, {"measurement": "IC50", "setting": "[4]", "value": "5.74 µM (active)"}]}, {"compound": "Cn1c(=O)c2cc(NC(=S)NC3CCCCC3)ccc2n1Cc1ccc(Cl)cc1", "values": [{"measurement": "AC50", "setting": "[5]", "value": "58 µM (active)"}]}, {"compound": "COc1cc2c(cc1NC(=O)c1ccccc1-c1ccccc1C(=O)O)-c1ccccc1C2", "values": [{"measurement": "AC50", "setting": "[5]", "value": "> 100 µM (inactive)"}]}, {"compound": "C[C@H](CO)N1C[C@H](C)[C@@H](CN(C)Cc2ccc(Cl)c(Cl)c2)Oc2ccc(NS(=O)(=O)c3ccccc3)cc2CC1=O", "values": [{"measurement": "AC50", "setting": "Paired box protein Pax-8", "value": "9.45 µM (active)"}, {"measurement": "AC50", "setting": "[6]", "value": "39.7 µM (active)"}, {"measurement": "AC50", "setting": "[7]", "value": "67.9 µM (active)"}]}, {"compound": "O=C(NCc1ccncc1)C(=O)N/N=C/c1ccc(OCc2ccccc2)cc1", "values": [{"measurement": "IC50", "setting": "[8]", "value": "10.3 µM (inactive)"}, {"measurement": "IC50", "setting": "[9]", "value": "13.2 µM (inactive)"}]}, {"compound": "C[C@H]1CCC/C=C/[C@@H]2C[C@H](O)C[C@H]2[C@H](O)[C@H]([S+]([O-])c2ccc(O)cc2)CC(=O)O1", "note": "(stereo not given in full)", "values": [{"measurement": "IC50", "setting": "[10]", "value": "2.05 µM (active)"}, {"measurement": "CC50", "setting": "[11]", "value": "4.03 µM (active)"}, {"measurement": "IC50", "setting": "[12]", "value": "231 µM (active)"}]}, {"compound": "C=CCNC1=NC(c2ccccc2C(F)(F)F)C(C(=O)OC)=C(C)N1Cc1ccc(C(F)(F)F)cc1", "note": "(stereo not given)", "values": [{"measurement": "IC50", "setting": "[13]", "value": "> 96.6 µM (inactive)"}]}, {"compound": "O=C(O)CCC(=O)OC[C@@H](NC(=O)C(Cl)Cl)[C@H](O)c1ccc([N+](=O)[O-])cc1", "note": "[CHLORAMPHENICOL SODIUM SUCCINATE]", "values": [{"measurement": "IC50", "setting": "[14]", "value": "> 20 µM (inactive)"}, {"measurement": "IC50", "setting": "[15]", "value": "> 20 µM (inactive)"}, {"measurement": "IC50", "setting": "[16]", "value": "> 20 µM (inactive)"}, {"measurement": "IC50", "setting": "[17]", "value": "> 20 µM (inactive)"}, {"measurement": "IC50", "setting": "[18]", "value": "> 20 µM (inactive)"}, {"measurement": "IC50", "setting": "[19]", "value": "> 20 µM (inactive)"}, {"measurement": "IC50", "setting": "[20]", "value": "> 20 µM (inactive)"}, {"measurement": "IC50", "setting": "[21]", "value": "> 20 µM (inactive)"}]}]}
